Data as given in US11596611B2, “Hepatitis B antiviral agents” (ENANTA PHARMACEUTICALS, INC., priority 2017, dated 2023).

Tested on: HBV
Assay: HepAD38 antiviral assay: reduction of viral product accumulation (virion DNA by qPCR, HBsAg or HBeAg by ELISA)
Assay type: cell-based, hepatitis B virus
Conditions: Hepatitis B virus, 120 h; HepAD38 cells, five days after compound addition; 50% reduction of viral product vs no drug controls; read-out: HepAD38 EC50
Protocol: Methods: HepAD38 cells are maintained as previously reported (Ladner et al, Antimicrob. Agents Chemother. 1997, […], 1715). Briefly, cells are passaged upon attaining confluency in DMEM/F12 media in the presence of 10% FBS, Penn/Strep, 250 μg/mL G418, and 1 ug/ml tetracycline. Novel compounds are screened by first washing cells three times with PBS to remove tetracycline, and plating in 96 well plates at 35,000 cells/well. Compounds dissolved in DMSO are then diluted 1:200 into wells containing cells. Five days after compound addition, material is harvested for analysis. For an extended 8 days analysis, cells are plated and treated as described above, but media and compound are refreshed on d2 and d5 post initial treatment.
On harvest day, virion DNA is obtained by lysing with Sidestep Lysis and Stabilization Buffer and then quantified via quantitative real time PCR. Commercially available ELISA kits are used to quantitate the viral proteins HBsAg (Alpco) or HbeAg (US Biological) by following the manufacturer's recommended protocol after diluting samples to match the linear range of their respective assays.

Row | Structure (SMILES) | EC50 [nM]
1 | COC(=O)N[C@H](C(=O)NC[C@]1(O)C2CCC1C[C@@H](S(=O)(=O)c1cc(C(=O)Nc3cc(F)c(F)c(F)c3)ccc1Cl)C2)C(C)C [Example 50] | < 104
2 | C[C@H](O)[C@@H](O)COC[C@]1(O)C2CCC1C[C@@H](S(=O)(=O)c1cc(C(=O)Nc3cc(F)c(F)c(F)c3)ccc1Cl)C2 (single isomer, unassigned) [Example 164] | < 104
3 | COC(=O)NCC(O)C(=O)NC[C@]1(O)C2CCC1C[C@@H](S(=O)(=O)c1cc(C(=O)Nc3cc(F)c(F)c(F)c3)ccc1Cl)C2 (some centres unmarked) [Example 96] | 100 to 200
4 | CC(C)(O)CNC(=O)C[C@]1(O)CC[C@@H](CS(=O)(=O)c2cc(C(=O)Nc3ccc(F)c(F)c3)ccc2Cl)CC1 [Example 195] | > 200
5 | O=C(Nc1cc(F)c(F)c(F)c1)c1ccc(Cl)c(S(=O)(=O)[C@H]2CC3CCC(C2)[C@]3(O)CNS(=O)(=O)CC(O)CO)c1 (some centres unmarked) [Example 40] | > 200
6 | O=C(C[C@]1(O)C2CCC1C[C@@H](S(=O)(=O)c1cc(C(=O)Nc3cc(F)c(F)c(F)c3)ccc1Cl)C2)NCC(O)CO (some centres unmarked) [Example 65] | < 104
7 | O=C(O)CC1(O)CC(S(=O)(=O)c2cc(C(=O)Nc3ccc(F)c(F)c3)ccc2Cl)C1 (centres unmarked) [Example 243] | > 200
8 | O=C(Nc1ccc(F)c(F)c1)c1ccc(Cl)c(S(=O)(=O)[C@H]2CC3CCC(C2)[C@]3(O)CN2CCOC2=O)c1 [Example 306] | < 104
9 | C[C@]1(O)C2CCC1C[C@@H](S(=O)(=O)c1cc(C(=O)Nc3cccnn3)ccc1Cl)C2 [Example 213] | > 200
10 | O=C(Nc1ccc(F)c(F)c1)c1ccc(Cl)c(S(=O)(=O)[C@@H]2CC3CC[C@@H](C2)[C@@]3(O)C(O)c2ccc(C(F)(F)F)cn2)c1 (some centres unmarked) [Example 300] | > 200
11 | C[C@]1(O)C2CCC1C[C@@H](S(=O)(=O)c1cc(C(=O)Nc3ccc(F)c(O)c3)ccc1Cl)C2 [Example 134] | > 200
12 | COC(=O)CNC(=O)[C@H]1C[C@@H](S(=O)(=O)c2cc(C(=O)Nc3ccc(F)c(F)c3)ccc2Cl)C1 [Example 253b] | > 200
13 | O=C(Nc1ccc(F)c(F)c1)c1ccc(Cl)c(S(=O)(=O)[C@H]2CC3CC[C@@H](C2)[C@@]3(O)C(O)CN2CCOC2=O)c1 (some centres unmarked) [Example 312] | > 200
14 | CS(=O)(=O)NCC(O)[C@]1(O)C2CCC1C[C@@H](S(=O)(=O)c1cc(C(=O)Nc3cc(F)c(F)c(F)c3)ccc1Cl)C2 (some centres unmarked) [Example 26] | < 104
15 | O=C1N[C@H](C(=O)NC[C@]2(O)C3CCC2C[C@@H](S(=O)(=O)c2cc(C(=O)Nc4cc(F)c(F)c(F)c4)ccc2Cl)C3)CO1 [Example 85] | > 200
16 | O=C1N[C@@H](C(=O)NC[C@]2(O)C3CCC2C[C@@H](S(=O)(=O)c2cc(C(=O)Nc4cc(F)c(F)c(F)c4)ccc2Cl)C3)CO1 [Example 95] | > 200
17 | O=C(Nc1ccc(F)c(F)c1)c1ccc(Cl)c(S(=O)(=O)[C@@H]2CC3C[C@H](O)C(C2)[C@@]3(O)CO)c1 (some centres unmarked) [Example 327] | 100 to 200
18 | C[C@]1(O)C2CCC1C[C@@H](S(=O)(=O)c1cccc(C(=O)Nc3cc(F)c(F)c(F)c3)c1)C2 [Example 37] | 100 to 200
19 | C[C@H](O)[C@@H](O)[C@]1(O)C2CCC1C[C@@H](S(=O)(=O)c1cc(C(=O)Nc3ccc(F)c(F)c3)n(C)c1)C2 [Example 341] | > 200

Row | Structure (SMILES) | EC50 [nM]
20 | C[C@]1(O)C2CCC1C[C@@H](S(=O)(=O)c1cc(C(=O)Nc3ccnnc3)ccc1Cl)C2 [Example 212] | > 200
21 | NS(=O)(=O)NC[C@]1(O)C2CCC1C[C@@H](S(=O)(=O)c1cc(C(=O)Nc3cc(F)c(F)c(F)c3)ccc1Cl)C2 [Example 156] | < 104
22 | C[C@H](O)[C@@H](O)[C@@]1(O)C2CC(O)C1C[C@H](S(=O)(=O)c1cc(C(=O)Nc3ccc(F)c(F)c3)ccc1Cl)C2 (some centres unmarked) [Example 337] | > 200
23 | O=C(Nc1ccc(F)c(F)c1)c1ccc(Cl)c(S(=O)(=O)CC2CCC(F)CC2)c1 (centres unmarked) [Example 226] | > 200
24 | COC(=O)N1CCC[C@H]1C(=O)N1C2CCC1CC(S(=O)(=O)c1cc(C(=O)Nc3cc(F)c(F)c(F)c3)ccc1Cl)C2 (some centres unmarked) [Example 143] | > 200
25 | O=C(Nc1ccc(F)c(F)c1)c1ccc(Cl)c(S(=O)(=O)[C@H]2CC3CCC(C2)[C@]3(O)CNC(=O)C2CC(O)C2)c1 (some centres unmarked) [Example 171] | > 200
26 | C[C@]1(O)C2CCC1C[C@@H](S(=O)(=O)c1cc(C(=O)Nc3ccc(F)c(F)c3)c(-c3cccnc3)cc1Cl)C2 [Example 102] | > 200
27 | O=C(Nc1cc(F)c(F)c(F)c1)c1ccc(Cl)c(S(=O)(=O)[C@@H]2CC3CC[C@@H](C2)[C@@]3(O)CNC(=O)C2CC2(O)CO)c1 (some centres unmarked) [Example 67] | > 200
28 | O=C(Nc1ccc(F)c(F)c1)c1ccc(Cl)c(S(=O)(=O)[C@@H]2CC3C[C@@H](O)C(C2)[C@@]3(O)CO)c1 (some centres unmarked) [Example 328] | 100 to 200
29 | O=C(Nc1cc(F)c(F)c(F)c1)c1ccc(Cl)c(S(=O)(=O)[C@H]2CC3CCC(C2)[C@]3(O)CNC(=O)C2CCC(O)C(O)C2)c1 (single isomer, unassigned) [Example 19] | > 200
30 | O=C(Nc1ccc(F)c(F)c1)c1ccc(Cl)c(S(=O)(=O)CC2CCC(O)(C(O)CO)CC2)c1 (centres unmarked) [Example 199] | > 200
31 | O=C1CC[C@H](C(=O)NC[C@@]2(O)C3CC[C@H]2C[C@H](S(=O)(=O)c2cc(C(=O)Nc4cc(F)c(F)c(F)c4)ccc2Cl)C3)N1 [Example 128] | > 200
32 | O=C[C@]1(O)C2CCC1C[C@@H](S(=O)(=O)c1cc(C(=O)Nc3ccc(F)c(F)c3)ccc1Cl)C2 [Example 203] | < 104
33 | O=C(CCCO)NC[C@]1(O)C2CCC1C[C@@H](S(=O)(=O)c1cc(C(=O)Nc3cc(F)c(F)c(F)c3)ccc1Cl)C2 [Example 2] | 100 to 200
34 | CCC1(O)CC(S(=O)(=O)c2cc(C(=O)Nc3ccc(F)c(F)c3)ccc2Cl)C1 (centres unmarked) [Example 233] | > 200
35 | O=C(Nc1ccc(F)c(F)c1)c1ccc(Cl)c(S(=O)(=O)[C@H]2CC3CCC(C2)[C@]3(O)C(O)CN2CCOC2=O)c1 (some centres unmarked) [Example 315] | > 200
36 | CC(=O)C[C@]1(O)CC[C@@H](CS(=O)(=O)c2cc(C(=O)Nc3ccc(F)c(F)c3)ccc2Cl)CC1 [Example 223] | 100 to 200
37 | O=C(Nc1ccc(F)c(F)c1)c1ccc(Cl)c(S(=O)(=O)[C@H]2CC3CC[C@@H](C2)[C@@]3(O)C(O)Cn2ccnc2)c1 (some centres unmarked) [Example 311] | > 200
38 | O=C(Nc1cc(F)c(F)c(F)c1)c1ccc(Cl)c(S(=O)(=O)C2CC3CCC(C2)N3C2CCCC2)c1 (centres unmarked) [Example 146] | > 200

Row | Structure (SMILES) | EC50 [nM]
39 | O=C(Nc1ccc(F)c(F)c1)c1ccc(Cl)c(S(=O)(=O)[C@H]2C3CC[C@H]2C[C@](O)(c2ncc[nH]2)C3)c1 [Example 6] | < 104
40 | O=C(CC1(O)CC(S(=O)(=O)c2cc(C(=O)Nc3ccc(F)c(F)c3)ccc2Cl)C1)NCCCO (centres unmarked) [Example 249] | > 200
41 | CC1(C)O[C@H]2[C@H](CO[C@@H]2C(=O)NC[C@@]2(O)C3CC[C@H]2C[C@H](S(=O)(=O)c2cc(C(=O)Nc4cc(F)c(F)c(F)c4)ccc2Cl)C3)O1 [Example 28] | < 104
42 | Cc1ccc(C(=O)Nc2ccc(F)c(F)c2)cc1S(=O)(=O)[C@H]1CC2CCC(C1)[C@@]2(C)O [Example 47] | 100 to 200
43 | O=C(Nc1cc(F)c(F)c(F)c1)c1ccc(Cl)c(S(=O)(=O)[C@@H]2CC3CC[C@@H](C2)[C@@]3(O)CNC(=O)[C@@H]2C[C@@H](O)[C@@H](O)C2)c1 [Example 24] | > 200
44 | Cc1cccnc1C(O)[C@@]1(O)C2CC[C@H]1C[C@H](S(=O)(=O)c1cc(C(=O)Nc3ccc(F)c(F)c3)ccc1Cl)C2 (some centres unmarked) [Example 295] | < 104
45 | Cc1ccnc([C@H](O)[C@@]2(O)C3CC[C@H]2C[C@H](S(=O)(=O)c2cc(C(=O)Nc4ccc(F)c(F)c4)ccc2Cl)C3)c1 [Example 296a] | < 104
46 | COC(=O)C1([C@]2(O)C3CCC2C[C@@H](S(=O)(=O)c2cc(C(=O)Nc4cc(F)c(F)c(F)c4)ccc2Cl)C3)COC(C)(C)O1 (some centres unmarked) [Example 202] | < 104
47 | CC(C)N(C)C[C@]1(O)C2CCC1C[C@@H](S(=O)(=O)c1cc(C(=O)Nc3ccc(F)c(F)c3)ccc1Cl)C2 [Example 304] | < 104
48 | COC(=O)N[C@@H](Cc1ccccc1)C(=O)N1C2CCC1CC(S(=O)(=O)c1cc(C(=O)Nc3cc(F)c(F)c(F)c3)ccc1Cl)C2 (some centres unmarked) [Example 154] | > 200
49 | O=C(O)CNC(=O)C[C@]1(O)C2CCC1C[C@@H](S(=O)(=O)c1cc(C(=O)Nc3cc(F)c(F)c(F)c3)ccc1Cl)C2 [Example 120] | > 200
50 | COC(=O)N[C@@H](C)C(=O)NC[C@]1(O)C2CCC1C[C@@H](S(=O)(=O)c1cc(C(=O)Nc3cc(F)c(F)c(F)c3)ccc1Cl)C2 [Example 48] | < 104
51 | CC(=O)C[C@]1(O)CC[C@H](CS(=O)(=O)c2cc(C(=O)Nc3ccc(F)c(F)c3)ccc2Cl)CC1 [Example 222] | 100 to 200
52 | NS(=O)(=O)OC[C@]1(O)CC2CC[C@@H](C1)[C@H]2S(=O)(=O)c1cc(C(=O)Nc2cc(F)c(F)c(F)c2)ccc1Cl [Example 3] | < 104
53 | COC(=O)CCNC(=O)C[C@]1(O)C2CCC1C[C@@H](S(=O)(=O)c1cc(C(=O)Nc3cc(F)c(F)c(F)c3)ccc1Cl)C2 [Example 139] | > 200
54 | Cn1cc(C(O)C(O)[C@]2(O)C3CCC2C[C@@H](S(=O)(=O)c2cc(C(=O)Nc4ccc(F)c(F)c4)ccc2Cl)C3)cn1 (some centres unmarked) [Example 322] | < 104
55 | CC(O)C(O)CNC(=O)C[C@]1(O)C2CCC1C[C@@H](S(=O)(=O)c1cc(C(=O)Nc3cc(F)c(F)c(F)c3)ccc1Cl)C2 (some centres unmarked) [Example 57] | 100 to 200
56 | COC(=O)N1C[C@H](O)C[C@H]1C(=O)NCC(O)[C@]1(O)C2CCC1C[C@@H](S(=O)(=O)c1cc(C(=O)Nc3cc(F)c(F)c(F)c3)ccc1Cl)C2 (some centres unmarked) [Example 107] | > 200
